Here are results for 22 compounds from patent publication US20080004302A1, “Novel Compounds” (ASTRAZENECA AB, priority 2006, published 2008).

The target of test [1] is T1, FGFR1 IIIc (Homo sapiens, UniProt P11362).
T1 construct: host or cells: Cos-1
The test is described as follows: Cell based inhibition of transiently expressed FGFR1 IIIc phosphorylation via use of ECHO technology (Cos-1 cells). To be noted: Cos-1 cells, phospho-FGFR1, ECHO dosing; upper bound of bin; read-out: IC50.

Test [2] deals with T1, FGFR1 IIIc. The test is described as follows: Cell based inhibition of transiently expressed FGFR1 IIIc phosphorylation (Cos-1 cells). To be noted: Cos-1 cells, phospho-FGFR1; upper bound of bin; read-out: IC50. On the procedure:
This assay is designed to detect inhibitors of transiently expressed FGFR1 phosphorylation by antibody staining of fixed cells detected using ArrayScan technology.
To undertake the assay, Cos-1 cells were harvested at 90-95% confluence for cell transfection. For each 96-well plate, 24 ul Lipofectamine 2000 was added to 809 ul OptiMEM and incubated at room temperature for 5 minutes. […] Equal volumes of DNA and Lipofectamine 2000 were combined (DNA: Lipid=1:1.2 ratio) and incubated at room temperature for 20 minutes.
The harvested Cos-1 cells are counted using a coulter counter and diluted further with 1% FCS/DMEM to 2.5×10^5 cells/ml. For each 96-well, 8.33 ml cells were required. […] Media was removed from the wells using vacuum aspiration; cells were fixed by adding 50μl of 100% methanol to each well and incubated at room temperature for 20 minutes.
The plates were read on an Arrayscan (Cellomics).

In another test the target is FGFR1 kinase (Homo sapiens, UniProt P11362). The test is described as follows: Kinase assay (using Caliper technology). To be noted: FGFR1 kinase, Caliper; upper bound of bin; read-out: IC50. The test is classed as biochemical. Put shortly:
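Human FGFR1 kinase activity measured with a 13-mer fluorescently tagged FGFR1-specific peptide substrate; compounds serially diluted in 5% (v/v) DMSO. Reactions ran 1.5 h at room temperature, stopped with EDTA-containing HEPES pH 7.5 buffer. Phosphorylated and unphosphorylated peptide separated by microfluidic mobility shift.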

For a further test, the target named is T2, human IGF1R (Homo sapiens, UniProt P08069).
T2 construct: expressed in transfected cells; host or cells: R+ cells (R- mouse fibroblasts transfected with human IGF1R)
The test is described as follows: Inhibition of insulin-like growth factor-1 receptor phosphorylation in R+ cells. The test is classed as cell-based. To be noted: 30 nM IGF1, read-out: IGF cell class.

The subject of the next test is Erk phosphorylation. The test is described as follows: Growth factor (bFGF) stimulated Erk phosphorylation in NIH 3T3 cells. To be noted: Mus musculus.
Setting [3] is: NIH3T3, NIH 3T3 cells, 3 ng/ml bFGF, upper bound of bin.

Structures can show the parent of a compound that is named as a salt.

T1 sequence (P11362 22-822): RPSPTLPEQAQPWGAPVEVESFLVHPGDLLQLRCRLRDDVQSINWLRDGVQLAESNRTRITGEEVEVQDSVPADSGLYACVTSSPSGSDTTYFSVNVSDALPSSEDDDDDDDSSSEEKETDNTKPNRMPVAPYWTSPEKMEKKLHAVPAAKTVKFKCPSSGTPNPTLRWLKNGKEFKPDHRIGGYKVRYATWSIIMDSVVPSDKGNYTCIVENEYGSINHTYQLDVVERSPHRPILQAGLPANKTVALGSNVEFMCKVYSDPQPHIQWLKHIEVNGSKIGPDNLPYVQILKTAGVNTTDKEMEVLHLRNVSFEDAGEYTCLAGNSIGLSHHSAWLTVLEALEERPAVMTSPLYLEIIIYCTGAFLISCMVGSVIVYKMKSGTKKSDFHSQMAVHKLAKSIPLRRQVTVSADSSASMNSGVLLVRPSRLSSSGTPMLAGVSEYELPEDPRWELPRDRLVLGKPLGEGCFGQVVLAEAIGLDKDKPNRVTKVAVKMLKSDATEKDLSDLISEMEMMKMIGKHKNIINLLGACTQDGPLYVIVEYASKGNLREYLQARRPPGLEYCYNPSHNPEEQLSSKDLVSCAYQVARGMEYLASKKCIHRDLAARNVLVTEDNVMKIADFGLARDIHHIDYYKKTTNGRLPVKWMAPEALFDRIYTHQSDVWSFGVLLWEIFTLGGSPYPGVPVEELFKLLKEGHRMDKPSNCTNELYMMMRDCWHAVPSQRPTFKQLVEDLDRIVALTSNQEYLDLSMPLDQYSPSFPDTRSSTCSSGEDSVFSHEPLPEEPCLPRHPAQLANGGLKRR
Chain of FGFR1 kinase (P11362 22-822): as above
T2 sequence (P08069 31-1367): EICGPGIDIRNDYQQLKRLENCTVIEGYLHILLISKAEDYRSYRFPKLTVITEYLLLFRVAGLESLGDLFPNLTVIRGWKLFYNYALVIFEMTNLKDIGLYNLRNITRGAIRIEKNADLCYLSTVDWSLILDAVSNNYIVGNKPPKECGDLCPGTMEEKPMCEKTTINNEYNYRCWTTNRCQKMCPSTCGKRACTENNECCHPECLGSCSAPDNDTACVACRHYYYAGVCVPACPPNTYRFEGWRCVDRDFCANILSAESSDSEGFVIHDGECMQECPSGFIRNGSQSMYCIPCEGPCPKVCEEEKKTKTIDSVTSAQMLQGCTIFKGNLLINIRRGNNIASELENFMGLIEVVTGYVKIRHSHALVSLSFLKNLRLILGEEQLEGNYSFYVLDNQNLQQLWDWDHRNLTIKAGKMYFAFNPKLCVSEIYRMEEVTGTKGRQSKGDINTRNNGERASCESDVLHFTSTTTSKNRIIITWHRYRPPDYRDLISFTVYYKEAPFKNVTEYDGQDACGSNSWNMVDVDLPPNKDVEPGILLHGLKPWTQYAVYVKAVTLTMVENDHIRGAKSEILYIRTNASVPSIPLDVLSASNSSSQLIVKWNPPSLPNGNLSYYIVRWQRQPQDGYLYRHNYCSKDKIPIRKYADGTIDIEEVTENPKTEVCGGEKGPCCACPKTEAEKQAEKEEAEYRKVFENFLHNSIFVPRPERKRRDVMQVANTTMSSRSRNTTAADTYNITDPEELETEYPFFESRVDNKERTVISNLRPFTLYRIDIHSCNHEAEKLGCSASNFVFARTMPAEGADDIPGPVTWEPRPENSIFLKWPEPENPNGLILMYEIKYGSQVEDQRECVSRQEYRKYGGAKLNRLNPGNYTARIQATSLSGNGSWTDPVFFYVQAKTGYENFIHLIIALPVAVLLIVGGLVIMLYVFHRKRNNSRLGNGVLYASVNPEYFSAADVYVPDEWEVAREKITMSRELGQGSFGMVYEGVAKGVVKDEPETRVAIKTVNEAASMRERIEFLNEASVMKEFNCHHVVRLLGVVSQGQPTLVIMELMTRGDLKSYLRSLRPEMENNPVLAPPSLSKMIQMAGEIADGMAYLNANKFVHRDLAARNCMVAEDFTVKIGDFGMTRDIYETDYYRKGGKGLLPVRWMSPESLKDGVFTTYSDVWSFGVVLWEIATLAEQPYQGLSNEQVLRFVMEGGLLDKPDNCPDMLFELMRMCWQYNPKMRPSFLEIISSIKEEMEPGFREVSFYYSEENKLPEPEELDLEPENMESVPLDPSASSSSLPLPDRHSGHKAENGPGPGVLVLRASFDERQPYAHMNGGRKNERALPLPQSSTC
From the text for Erk phosphorylation: These and other assays were used to evaluate the ability of a test compound to inhibit growth factor stimulated cellular signalling in mammalian cell lines. This was achieved by measuring the amount of receptor tyrosine kinase regulated Erk phosphorylation within a cell following compound treatment.
NIH 3T3 (ECACC, 93061524) cells were routinely passaged in DMEM (Gibco BRL, 41966) plus 10% foetal calf serum (FCS), 1% L-glutamine (Gibco BRL, 25030) to a confluence not greater than 80%. To undertake the assay, NIH 3T3's were seeded at 1×10^4 cells/well in DMEM plus 10% foetal calf serum, 1% L-glutamine in 96 well plates (Costar, 3904) and incubated at 37° C. (+5% CO2) in a humidified incubator. Once the cells had fully adhered (typically following 4-5 hours incubation) the media was removed from each well and the cells gently washed with 100μl warm serum free media. 90μl of serum free DMEM plus 1% L-glutamine was then added to each well and the plates were returned to a humidified 37° C. (+5% CO2) incubator. The following day, the plates were dosed with 10[l compound (diluted from 10 mM stock in DMSO using serum free DMEM) and the plates were returned to a humidified 37° C. (+5% CO2) incubator for one hour. NIH 3T3 cells were then stimulated with a final concentration of 3 ng/ml bFGF (Sigma, F029 1) for 20 minutes at 37° C. Following stimulation the cells were fixed by adding formaldehyde (4% v/v final concentration) and incubating at room temperature for 20 minutes. The fixative solution was then removed and the wells were washed twice with 100μl phosphate buffered saline (PBS/A) before permeabilising the cells by the addition of 50 μl/well 0.1% triton/PBS/A for 10 minutes at room temperature. The permeabilisation solution was then removed and the cells washed twice more with 100 μl/well PBS/A before the addition of 50 μl/well anti-phospho p44/42 (Cell Signalling Technology, 9106), diluted 1/500 with PBS/A plus 10% FCS. The anti-phospho p44/42 antibody recognises Erk phosphorylated at threonine 202 and tyrosine 204. […] Finally, the plates were washed three times with 100 μl/well PBS/A, leaving the final wash in the wells before sealing the plates. The plates were read at 350 nm and 488 nm using an Arrayscan (Cellomics).

For `Cc1cc(CNc2nccc(Nc3cc(C4CCCC4)[nH]n3)n2)on1` [Example 13, N′-(5-cyclopentyl-2H-pyrazol-3-yl)-N-[(3-methyl-1,2-oxazol-5-yl)methyl]pyrimidine-2,4-diamine], the IC50 on FGFR1 IIIc [1] was under 1000 nM; on FGFR1 IIIc [2] it was under 200 nM.

For the compound `c1cc(Nc2cc(C3CCCC3)[nH]n2)nc(NCc2cc(C3CC3)no2)n1` [Example 14, N′-(5-cyclopentyl-2H-pyrazol-3-yl)-N-[(3-cyclopropyl-1,2-oxazol-5-yl)methyl]pyrimidine-2,4-diamine], the IC50 at FGFR1 IIIc [1], at FGFR1 kinase and at FGFR1 IIIc [2] was under 200 nM in each case.

On to `CC(C)Cc1cc(Nc2ccnc(NCc3cc(C4CC4)no3)n2)n[nH]1` [Example 16, N-[(3-cyclopropyl-1,2-oxazol-5-yl)methyl]-N′-[5-(2-methylpropyl)-2H-pyrazol-3-yl]pyrimidine-2,4-diamine], for which the IC50 at FGFR1 IIIc [1] was under 200 nM; on FGFR1 kinase, under 200 nM; on FGFR1 IIIc [2], under 1000 nM.

For the compound `COc1ccccc1CCc1cc(Nc2ccnc(NCc3cc(C)no3)n2)n[nH]1` [Example 31, N′-[5-[2-(2-methoxyphenyl)ethyl]-1H-pyrazol-3-yl]-N-[(3-methyl1,2-oxazol-5-yl)methyl]pyrimidine-2,4-diamine hydrochloride], the IC50 at human IGF1R is over 10000 nM; at FGFR1 kinase, under 1000 nM; at FGFR1 IIIc [2], under 10000 nM; in the test on Erk phosphorylation (setting [3]), under 10000 nM.

As for `Cc1cc(CNc2nccc(Nc3cc(COc4ccccc4)[nH]n3)n2)on1` [Example 34, N-[(3-methyl-1,2-oxazol-5-yl)methyl]-N′-[5-(phenoxymethyl)-2H-pyrazol-3-yl]pyrimidine-2,4-diamine], the IC50 at human IGF1R was over 10000 nM; on FGFR1 kinase it was under 10000 nM; at FGFR1 IIIc [2] it was under 10000 nM; in the test with Erk phosphorylation (setting [3]), under 10000 nM.

For the compound `COc1ccc(CCc2cc(Nc3ccnc(NCc4cc(C)no4)n3)n[nH]2)cc1OC` [Example 46, N′-[5-[2-(3,4-dimethoxyphenyl)ethyl]-1H-pyrazol-3-yl]-N-[(3-methyl1,2-oxazol-5-yl)methyl]pyrimidine-2,4-diamine hydrochloride], the IC50 was 1000 to 10000 nM on human IGF1R, under 10000 nM at FGFR1 IIIc [2] and under 10000 nM in the test with Erk phosphorylation (NIH3T3).

Turning to `Oc1cccc(CCc2cc(Nc3ccnc(NCc4cc(C5CC5)no4)n3)n[nH]2)c1` [Example 56, 3-[2-[5-[[2-[(3-cyclopropyl-1,2-oxazol-5-yl)methylamino]pyrimidin-4-yl]amino]-1H-pyrazol-3-yl]ethyl]phenol], the IC50 at FGFR1 IIIc [1] was under 200 nM; on human IGF1R, 1000 to 10000 nM; at FGFR1 kinase, under 200 nM; at FGFR1 IIIc [2] it was under 200 nM.

For `Cc1cc(CNc2nccc(Nc3cc(CCc4cc(F)cc(Cl)c4)[nH]n3)n2)on1` [Example 57, N′-[5-[2-(3-chloro-5-fluoro-phenyl)ethyl]-2H-pyrazol-3-yl]-N-[(3-methyl-1,2-oxazol-5-yl)methyl]pyrimidine-2,4-diamine], the IC50 at FGFR1 IIIc [1] was under 1000 nM; on FGFR1 kinase, under 1000 nM; at FGFR1 IIIc [2], under 200 nM.

Consider `Cc1cc(CNc2nccc(Nc3cc(CCc4cccc(CN)c4)[nH]n3)n2)on1` [Example 58, N′-[5-[2-[3-(aminomethyl)phenyl]ethyl]-1H-pyrazol-3-yl]-N-[(3-methyl-1,2-oxazol-5-yl)methyl]pyrimidine-2,4-diamine], for which the IC50 on FGFR1 IIIc [1] was under 30000 nM; on FGFR1 kinase it was under 1000 nM; at FGFR1 IIIc [2], under 30000 nM.

With `Cc1cc(CNc2nccc(Nc3cc(CCc4cccc(C(=O)N(C)C)c4)[nH]n3)n2)on1` [Example 59, N,N-dimethyl-3-[2-[5-[[2-[(3-methyl-1,2-oxazol-5-yl)methylamino]pyrimidin-4-yl]amino]-2H-pyrazol-3-yl]ethyl]benzamide], the figures for the IC50 on FGFR1 IIIc [1], at FGFR1 kinase and on FGFR1 IIIc [2] were under 30000 nM, under 1000 nM and under 30000 nM, respectively.

Take `COc1ncc(CCc2cc(Nc3ccnc(NCc4cc(C)no4)n3)n[nH]2)c(OC)n1` [Example 60, N′-[5-[2-(2,4-dimethoxypyrimidin-5-yl)ethyl]-1H-pyrazol-3-yl]-N-[(3-methyl-1,2-oxazol-5-yl)methyl]pyrimidine-2,4-diamine]: the IC50 on human IGF1R is over 10000 nM; on FGFR1 kinase it was under 1000 nM; on FGFR1 IIIc [2], under 30000 nM.

Take `COc1cccc(CCc2cc(Nc3ccnc(NCc4cc(CO)no4)n3)[nH]n2)c1` [Example 61, [5-[[[4-[[5-[2-(3-methoxyphenyl)ethyl]-2H-pyrazol-3-yl]amino]pyrimidin-2-yl]amino]methyl]-1,2-oxazol-3-yl]methanol]: the IC50 was over 10000 nM at human IGF1R, under 200 nM on FGFR1 kinase and under 1000 nM at FGFR1 IIIc [2].

For `COc1cc(CCc2cc(Nc3ccnc(NCc4cc(C)no4)n3)n[nH]2)c(F)cn1` [Example 62, N′-[5-[2-(5-fluoro-2-methoxy-pyridin-4-yl)ethyl]-1H-pyrazol-3-yl]-N-[(3-methyl-1,2-oxazol-5-yl)methyl]pyrimidine-2,4-diamine hydrochloride], the IC50 on FGFR1 IIIc [1] was under 1000 nM; at human IGF1R, over 10000 nM; at FGFR1 kinase it was under 1000 nM; on FGFR1 IIIc [2], under 1000 nM.

In the case of `CN(C)Cc1cc(CNc2nccc(Nc3cc(CCc4cccc(O)c4)n[nH]3)n2)on1` [Example 63, 3-[2-[5-[[2-[[3-(dimethylaminomethyl)-1,2-oxazol-5-yl]methylamino]pyrimidin-4-yl]amino]-1H-pyrazol-3-yl]ethyl]phenol], the IC50 on FGFR1 IIIc [1] was under 10000 nM; at FGFR1 kinase it was under 200 nM; at FGFR1 IIIc [2] it was under 10000 nM.

Turning to `CNC(=O)c1cc(CNc2nccc(Nc3cc(CCc4cccc(OC)c4)n[nH]3)n2)on1` [Example 64, 5-[[[4-[[5-[2-(3-methoxyphenyl)ethyl]-2H-pyrazol-3-yl]amino]pyrimidin-2-yl]amino]methyl]-N-methyl-1,2-oxazole-3-carboxamide], the IC50 was under 10000 nM on FGFR1 IIIc [1], under 1000 nM at FGFR1 kinase and under 10000 nM on FGFR1 IIIc [2].

On to `CNC(=O)c1cc(CNc2nccc(Nc3cc(CCc4cccc(O)c4)n[nH]3)n2)on1` [Example 65, 5-[[[4-[[5-[2-(3-hydroxyphenyl)ethyl]-2H-pyrazol-3-yl]amino]pyrimidin-2-yl]amino]methyl]-N-methyl-1,2-oxazole-3-carboxamide], for which the IC50 at FGFR1 IIIc [1] is under 10000 nM; on human IGF1R, 1000 to 10000 nM; at FGFR1 kinase, under 200 nM; at FGFR1 IIIc [2] it was under 10000 nM.

Turning to `CC(C)Oc1cc(Nc2ccnc(NCc3cc(C(N)=O)no3)n2)[nH]n1` [Example 78, 5-[[[4-[(5-propan-2-yloxy-2H-pyrazol-3-yl)amino]pyrimidin-2-yl]amino]methyl]-1,2-oxazole-3-carboxamide], the IC50 at FGFR1 kinase is under 200 nM; on FGFR1 IIIc [2] it was under 10000 nM; in the test on Erk phosphorylation (setting [3]) it was under 1000 nM.

As to `CC(C)Oc1cc(Nc2ccnc(NCc3cc(C4CCC4)no3)n2)n[nH]1` [Example 102, N-[(3-cyclobutyl-1,2-oxazol-5-yl)methyl]-N′-(5-propan-2-yloxy-1H-pyrazol-3-yl)pyrimidine-2,4-diamine], the IC50 at FGFR1 IIIc [1] is under 200 nM; on human IGF1R it was 100 to 1000 nM; on FGFR1 kinase, under 200 nM; on FGFR1 IIIc [2] it was under 200 nM.

As to `c1ccc(COc2cc(Nc3ccnc(NCc4cc(C5CC5)no4)n3)n[nH]2)cc1` [Example 103, N-[(3-cyclopropyl-1,2-oxazol-5-yl)methyl]-N′-(5-phenylmethoxy-2H-pyrazol-3-yl)pyrimidine-2,4-diamine], the IC50 on FGFR1 IIIc [1] is under 200 nM; at human IGF1R it was 1000 to 10000 nM; on FGFR1 kinase, under 200 nM; at FGFR1 IIIc [2], under 200 nM.

`Cc1cc(CNc2nccc(Nc3cc(OCc4ccoc4)[nH]n3)n2)on1` [Example 108, N′-[5-(3-furylmethoxy)-1H-pyrazol-3-yl]-N-[(3-methyl1,2-oxazol-5-yl)methyl]pyrimidine-2,4-diamine]: the IC50 at FGFR1 kinase was under 200 nM; at FGFR1 IIIc [2], under 10000 nM; with Erk phosphorylation (setting [3]), under 1000 nM.

Turning to `Cc1cc(CNc2nccc(Nc3cc(CCc4ccncc4)[nH]n3)n2)on1` [Example 116, N-[(3-methyl-1,2-oxazol-5-yl)methyl]-N′-[5-(2-pyridin-4-ylethyl)-2H-pyrazol-3-yl]pyrimidine-2,4-diamine], the IC50 is over 10000 nM on human IGF1R, under 10000 nM at FGFR1 kinase and under 30000 nM on FGFR1 IIIc [2].

For `c1coc(-c2cc(Nc3ccnc(NCc4cc(C5CC5)no4)n3)n[nH]2)c1` [Example 120, N-[(3-cyclopropyl-1,2-oxazol-5-yl)methyl]-N′-[5-(2-furyl)-2H-pyrazol-3-yl]pyrimidine-2,4-diamine], the IC50 at FGFR1 IIIc [1] is under 200 nM; on human IGF1R it was 1000 to 10000 nM; at FGFR1 kinase it was under 200 nM; at FGFR1 IIIc [2], under 1000 nM.
